Measured values: BigSolDB 2.1

NC(=O)c1nc(F)cnc1O
solubility (mole fraction) (in DMF, 293.15 K): 0.0109 | solubility (mole fraction) (in DMF, 298.15 K): 0.0116 | solubility (mole fraction) (in DMF, 303.15 K): 0.0128 | solubility (mole fraction) (in DMF, 308.15 K): 0.0133 | solubility (mole fraction) (in DMF, 313.15 K): 0.0156 | solubility (mole fraction) (in DMF, 318.15 K): 0.0183 | solubility (mole fraction) (in DMF, 323.15 K): 0.0212 | solubility (mole fraction) (in DMF, 328.15 K): 0.0234 | solubility (mole fraction) (in DMF, 333.15 K): 0.026 | solubility (mole fraction) (in acetone, 293.15 K): 0.00417 | solubility (mole fraction) (in acetone, 298.15 K): 0.00458 | solubility (mole fraction) (in acetone, 303.15 K): 0.00492 | solubility (mole fraction) (in acetone, 308.15 K): 0.00523 | solubility (mole fraction) (in acetone, 313.15 K): 0.00585 | solubility (mole fraction) (in acetone, 318.15 K): 0.00638 | solubility (mole fraction) (in acetone, 323.15 K): 0.00699 | solubility (mole fraction) (in acetone, 328.15 K): 0.00772 | solubility (mole fraction) (in acetone, 333.15 K): 0.00859 | solubility (mole fraction) (in acetonitrile, 293.15 K): 0.00183 | solubility (mole fraction) (in acetonitrile, 298.15 K): 0.00188 | solubility (mole fraction) (in acetonitrile, 303.15 K): 0.00193 | solubility (mole fraction) (in acetonitrile, 308.15 K): 0.00207 | solubility (mole fraction) (in acetonitrile, 313.15 K): 0.00226 | solubility (mole fraction) (in acetonitrile, 318.15 K): 0.00242 | solubility (mole fraction) (in acetonitrile, 323.15 K): 0.00268 | solubility (mole fraction) (in acetonitrile, 328.15 K): 0.00285 | solubility (mole fraction) (in acetonitrile, 333.15 K): 0.00293 | solubility (mole fraction) (in dichloromethane, 293.15 K): 0.00231 | solubility (mole fraction) (in dichloromethane, 298.15 K): 0.00271 | solubility (mole fraction) (in dichloromethane, 303.15 K): 0.00277 | solubility (mole fraction) (in dichloromethane, 308.15 K): 0.00284 | solubility (mole fraction) (in dichloromethane, 313.15 K): 0.00328 | solubility (mole fraction) (in dichloromethane, 318.15 K): 0.00359 | solubility (mole fraction) (in dichloromethane, 323.15 K): 0.00398 | solubility (mole fraction) (in dichloromethane, 328.15 K): 0.00462 | solubility (mole fraction) (in dichloromethane, 333.15 K): 0.00514 | solubility (mole fraction) (in ethanol, 293.15 K): 0.00206 | solubility (mole fraction) (in ethanol, 298.15 K): 0.00238 | solubility (mole fraction) (in ethanol, 303.15 K): 0.00252 | solubility (mole fraction) (in ethanol, 308.15 K): 0.00279 | solubility (mole fraction) (in ethanol, 313.15 K): 0.00318 | solubility (mole fraction) (in ethanol, 318.15 K): 0.00339 | solubility (mole fraction) (in ethanol, 323.15 K): 0.00366 | solubility (mole fraction) (in ethanol, 328.15 K): 0.00395 | solubility (mole fraction) (in ethanol, 333.15 K): 0.00458 | solubility (mole fraction) (in ethyl acetate, 293.15 K): 0.0036 | solubility (mole fraction) (in ethyl acetate, 298.15 K): 0.00396 | solubility (mole fraction) (in ethyl acetate, 303.15 K): 0.00442 | solubility (mole fraction) (in ethyl acetate, 308.15 K): 0.00449 | solubility (mole fraction) (in ethyl acetate, 313.15 K): 0.00497 | solubility (mole fraction) (in ethyl acetate, 318.15 K): 0.00525 | solubility (mole fraction) (in ethyl acetate, 323.15 K): 0.00572 | solubility (mole fraction) (in ethyl acetate, 328.15 K): 0.00599 | solubility (mole fraction) (in ethyl acetate, 333.15 K): 0.00662 | solubility (mole fraction) (in isopropanol, 293.15 K): 0.00185 | solubility (mole fraction) (in isopropanol, 298.15 K): 0.00196 | solubility (mole fraction) (in isopropanol, 303.15 K): 0.00209 | solubility (mole fraction) (in isopropanol, 308.15 K): 0.00236 | solubility (mole fraction) (in isopropanol, 313.15 K): 0.00268 | solubility (mole fraction) (in isopropanol, 318.15 K): 0.00284 | solubility (mole fraction) (in isopropanol, 323.15 K): 0.00315 | solubility (mole fraction) (in isopropanol, 328.15 K): 0.00318 | solubility (mole fraction) (in isopropanol, 333.15 K): 0.00326 | solubility (mole fraction) (in methanol, 293.15 K): 0.00147 | solubility (mole fraction) (in methanol, 298.15 K): 0.00152 | solubility (mole fraction) (in methanol, 303.15 K): 0.00156 | solubility (mole fraction) (in methanol, 308.15 K): 0.00163 | solubility (mole fraction) (in methanol, 313.15 K): 0.00169 | solubility (mole fraction) (in methanol, 318.15 K): 0.00176 | solubility (mole fraction) (in methanol, 323.15 K): 0.00182 | solubility (mole fraction) (in methanol, 328.15 K): 0.00195 | solubility (mole fraction) (in methanol, 333.15 K): 0.00199 | solubility (mole fraction) (in methyl acetate, 293.15 K): 0.00397 | solubility (mole fraction) (in methyl acetate, 298.15 K): 0.00408 | solubility (mole fraction) (in methyl acetate, 303.15 K): 0.00464 | solubility (mole fraction) (in methyl acetate, 308.15 K): 0.00499 | solubility (mole fraction) (in methyl acetate, 313.15 K): 0.00521 | solubility (mole fraction) (in methyl acetate, 318.15 K): 0.00564 | solubility (mole fraction) (in methyl acetate, 323.15 K): 0.00597 | solubility (mole fraction) (in methyl acetate, 328.15 K): 0.00624 | solubility (mole fraction) (in methyl acetate, 333.15 K): 0.00778 | solubility (mole fraction) (in n-butanol, 293.15 K): 0.00263 | solubility (mole fraction) (in n-butanol, 298.15 K): 0.00296 | solubility (mole fraction) (in n-butanol, 303.15 K): 0.00318 | solubility (mole fraction) (in n-butanol, 308.15 K): 0.00346 | solubility (mole fraction) (in n-butanol, 313.15 K): 0.00385 | solubility (mole fraction) (in n-butanol, 318.15 K): 0.00409 | solubility (mole fraction) (in n-butanol, 323.15 K): 0.00463 | solubility (mole fraction) (in n-butanol, 328.15 K): 0.00499 | solubility (mole fraction) (in n-butanol, 333.15 K): 0.00537 | solubility (mole fraction) (in n-butyl acetate, 293.15 K): 0.00502 | solubility (mole fraction) (in n-butyl acetate, 298.15 K): 0.00513 | solubility (mole fraction) (in n-butyl acetate, 303.15 K): 0.00582 | solubility (mole fraction) (in n-butyl acetate, 308.15 K): 0.00641 | solubility (mole fraction) (in n-butyl acetate, 313.15 K): 0.00681 | solubility (mole fraction) (in n-butyl acetate, 318.15 K): 0.00741 | solubility (mole fraction) (in n-butyl acetate, 323.15 K): 0.00839 | solubility (mole fraction) (in n-butyl acetate, 328.15 K): 0.00894 | solubility (mole fraction) (in n-butyl acetate, 333.15 K): 0.00986 | solubility (mole fraction) (in n-propanol, 293.15 K): 0.00188 | solubility (mole fraction) (in n-propanol, 298.15 K): 0.00197 | solubility (mole fraction) (in n-propanol, 303.15 K): 0.00225 | solubility (mole fraction) (in n-propanol, 308.15 K): 0.00258 | solubility (mole fraction) (in n-propanol, 313.15 K): 0.00276 | solubility (mole fraction) (in n-propanol, 318.15 K): 0.00299 | solubility (mole fraction) (in n-propanol, 323.15 K): 0.00316 | solubility (mole fraction) (in n-propanol, 328.15 K): 0.00349 | solubility (mole fraction) (in n-propanol, 333.15 K): 0.00395
